# “And” between values parts separate entries of the source, which are not always exact repeats. Equal entries are not always repeated.
# Key:
# [1] = tested on: S473P-Akt; experiment: In vivo S473P-Akt inhibition in Rat1-myr-p110α tumors (RPPA) versus tumor drug concentration; set-up: species or system nude mice and rats
# Description: (§1) Rat1-Myr-p110α tumors were established by subcutaneous injection of […] in 100 μL HBSS (Sigma #H8264) into the right flank of nude mice or nude rats. For the efficacy experiments, treatments were initiated when the mean tumor volumes were approx. 300 mm^3 (14 to 15 days post tumor cells injection).
# (§2) Blood samples were collected at different time points post the last treatment (1 hour, 2 hour, 4 hour, 8 hour, 12 hour, 16 hour and 24 hour, n=2-3 per time point) into tubes coated with K-EDTA. Blood samples were centrifuged and collected plasma immediately frozen at −80° C. until final processing. Tumors were collected at sacrifice at 7 time points (1 hour, 2 hour, 4 hour, 8 hour, 12 hour, 16 hour and 24 hour, n=2-3 per time point), snap frozen and kept at −80° C. until final processing.
# After dissection, the tumors were snap-frozen in liquid nitrogen and stored at −80° C. Frozen tumors were pulverized using a Retsch ball mixer mill MM20 (Arlesheim, Switzerland) with metal cylinders that were pre-cooled to −80° C. in a freezer. Powder was scrapped from metal cylinders on dry ice and transferred into pre-cooled 1.5 mL Eppendorf tubes while avoiding melting.
# (§3) Following addition of 25 μL of internal standard (1 μg/mL) to analytical aliquots (25 μL) of plasma or (20 mg) tumor powder, the proteins were precipitated by the addition of 200 μL acetonitrile. The supernatant were transferred in a fresh vial. After evaporation to dryness the samples were re-dissolved in 60 μL acetonitrile/water (1/1 v/v). An aliquot (5 μL) of this solution was separated on a ACQUITY UPLC BEH C18 column (Waters™ 1.7 μm particle size, 2.1×50 mm) with a mobile phase consisting of a mixture of 0.1% formic acid in water (solvent A) and 0.1% formic acid in acetonitrile (solvent B). Gradient programming was used with a flow rate of 600 μL/min. After equilibration with 95% solvent A, 5 μL of sample was injected. Following a latency period of 0.25 min, the sample was eluted with a linear gradient of 5-100% solvent B over a period of 0.65 minutes followed by a 0.35 minutes hold. The column was prepared for the next sample by re-equilibrating over 0.25 minutes to the starting conditions. […]
# Each sample was vortexed and centrifuged for 10 minutes at 10,000 rpm. […] The protein concentrations were quantified using the Coomassie Plus Kit (#23236 Thermo Scientific, Rockford, Ill., USA) according to the protocol of the manufacturer. The diluted samples were transferred into a 96 well plate (#269620, NUNC) and the absorbance was measured at 595 nm using a SpectraMAX Plus plate reader from Molecular Devices. The Protein amount was calculated using the Softmax Pro 5.0 software (Molecular Devices, USA) and then normalized on 1 mg/mL using the corresponding lysis buffer. […]
# [2] = Modulation of glucose and insulin levels, nude mice; type: in vivo; conditions: versus plasma drug concentration
# [3] = tested on: Rat1-myr-p110α tumor; experiment: Antitumor activity in the Rat1-myr-p110α tumor model, nude mice; type: in vivo; conditions: oral
# Description: (§4) Experiments were performed in female Hsd: Athymic Nude-nu CPB mice (Harlan Winkelmann, Germany). Animals were between 12 and 14 weeks of age at treatment start and housed under Optimized Hygienic Conditions (OHC) in Makrolon type III cages (max. 5 animals per cage) with free access to food and water. In addition, experiments were also performed in female nude Rowett rats Hsd: RH-Fox1mu (Harlan (The Netherlands). Animals were 6-9 weeks of age at time of application of the compound. Animals were housed under Optimized Hygienic Conditions in Makrolon type III cages (max. 2 animals per cage) with free access to food and water. They were allowed to adapt for at least 6 days before the experiment was started.
# (§5) Rat1-Myr-p110α cells were grown in Dulbecco's Modified Eagle Medium (DMEM) culture medium containing 4.5 g/l glucose supplemented with 10% heat-inactivated fetal calf serum (FCS), 2 mM L-glutamine, 1 mM sodium pyruvate and incubated at 37° C. in a 5% CO2 humidified atmosphere. Cells were harvested with trypsin-EDTA, re-suspended in culture medium (with additives) and counted with a Casy® system. Finally, cells are centrifuged, suspended in ice-cold Hanks' balanced salt solution (HBSS) at a concentration of 3×10^7 cells/ml. Cell culture reagents were purchased from BioConcept (Allschwil, Switzerland).
# as §1
# (§6) Fresh suspensions were prepared once every 4 days and stored at 4° C.
# (§7) Tumor volumes were measured with calipers and determined according to the formula: length×diameter^2×[…]/6. In addition to presenting changes of tumor volumes over the course of treatments, antitumor activity is expressed as T/C % (mean change of tumor volume of treated animals/mean change of tumor volume of control animals)×100. Regressions (%) were calculated according to the formula ((mean tumor volume at end of treatment−mean tumor volume at start of treatment)/mean tumor volume at start of treatment)×100. Body weights and tumor volumes were recorded two to three times a week.
# [4] = target: mTOR (Homo sapiens, UniProt P42345); conditions: cited from earlier work
# [5] = tested on: advanced solid malignancies carrying an alteration in the PIK3CA gene; conditions: patients treated at ≥270 mg/day, oral, continuous daily schedule; breast, colorectal, endometrial, cervical cancer (1 patient each); as of Feb. 15, 2013; cited from earlier work
# [6] = tested on: Rat1-myr P110a tumors; experiment: PK/PD/efficacy relationship (time over in vivo IC80 versus anti-tumor efficacy); set-up: species or system mice and rats
# From the text: Phoenix WinNonlin 6.3 (Pharsight) was used to simulate the mean plasma concentration time profiles after multiple dosing using the non-compartmental nonparametric superposition approach of data generated either from a mouse or rat efficacy study. The predictions are based upon an accumulation ratio computed from the terminal slope (Lambda Z), allowing predictions from simple or complicated dosing schedules.
# FIG. 6 provides the relationship between exposure (as measured by time over the in vivo IC80) and anti-tumor efficacy. Further, a nearly linear relationship is identified between the anti-tumor efficacy magnitude and duration of drug exposure (as measured by time over the in vivo IC80) over the IC80 (R^2=0.89; FIG. 7).
# [7] = Human plasma exposure; type: in vivo; conditions: po, human dose 300-350 mg/day p.o.
# Description: The corresponding total dose for qd in continuous daily schedule p.o. dose would be 14 mg/kg.
# [8] = target: ATR (Homo sapiens, UniProt Q13535); conditions: cited from earlier work
# Sequence of ATR (Q13535 whole entry): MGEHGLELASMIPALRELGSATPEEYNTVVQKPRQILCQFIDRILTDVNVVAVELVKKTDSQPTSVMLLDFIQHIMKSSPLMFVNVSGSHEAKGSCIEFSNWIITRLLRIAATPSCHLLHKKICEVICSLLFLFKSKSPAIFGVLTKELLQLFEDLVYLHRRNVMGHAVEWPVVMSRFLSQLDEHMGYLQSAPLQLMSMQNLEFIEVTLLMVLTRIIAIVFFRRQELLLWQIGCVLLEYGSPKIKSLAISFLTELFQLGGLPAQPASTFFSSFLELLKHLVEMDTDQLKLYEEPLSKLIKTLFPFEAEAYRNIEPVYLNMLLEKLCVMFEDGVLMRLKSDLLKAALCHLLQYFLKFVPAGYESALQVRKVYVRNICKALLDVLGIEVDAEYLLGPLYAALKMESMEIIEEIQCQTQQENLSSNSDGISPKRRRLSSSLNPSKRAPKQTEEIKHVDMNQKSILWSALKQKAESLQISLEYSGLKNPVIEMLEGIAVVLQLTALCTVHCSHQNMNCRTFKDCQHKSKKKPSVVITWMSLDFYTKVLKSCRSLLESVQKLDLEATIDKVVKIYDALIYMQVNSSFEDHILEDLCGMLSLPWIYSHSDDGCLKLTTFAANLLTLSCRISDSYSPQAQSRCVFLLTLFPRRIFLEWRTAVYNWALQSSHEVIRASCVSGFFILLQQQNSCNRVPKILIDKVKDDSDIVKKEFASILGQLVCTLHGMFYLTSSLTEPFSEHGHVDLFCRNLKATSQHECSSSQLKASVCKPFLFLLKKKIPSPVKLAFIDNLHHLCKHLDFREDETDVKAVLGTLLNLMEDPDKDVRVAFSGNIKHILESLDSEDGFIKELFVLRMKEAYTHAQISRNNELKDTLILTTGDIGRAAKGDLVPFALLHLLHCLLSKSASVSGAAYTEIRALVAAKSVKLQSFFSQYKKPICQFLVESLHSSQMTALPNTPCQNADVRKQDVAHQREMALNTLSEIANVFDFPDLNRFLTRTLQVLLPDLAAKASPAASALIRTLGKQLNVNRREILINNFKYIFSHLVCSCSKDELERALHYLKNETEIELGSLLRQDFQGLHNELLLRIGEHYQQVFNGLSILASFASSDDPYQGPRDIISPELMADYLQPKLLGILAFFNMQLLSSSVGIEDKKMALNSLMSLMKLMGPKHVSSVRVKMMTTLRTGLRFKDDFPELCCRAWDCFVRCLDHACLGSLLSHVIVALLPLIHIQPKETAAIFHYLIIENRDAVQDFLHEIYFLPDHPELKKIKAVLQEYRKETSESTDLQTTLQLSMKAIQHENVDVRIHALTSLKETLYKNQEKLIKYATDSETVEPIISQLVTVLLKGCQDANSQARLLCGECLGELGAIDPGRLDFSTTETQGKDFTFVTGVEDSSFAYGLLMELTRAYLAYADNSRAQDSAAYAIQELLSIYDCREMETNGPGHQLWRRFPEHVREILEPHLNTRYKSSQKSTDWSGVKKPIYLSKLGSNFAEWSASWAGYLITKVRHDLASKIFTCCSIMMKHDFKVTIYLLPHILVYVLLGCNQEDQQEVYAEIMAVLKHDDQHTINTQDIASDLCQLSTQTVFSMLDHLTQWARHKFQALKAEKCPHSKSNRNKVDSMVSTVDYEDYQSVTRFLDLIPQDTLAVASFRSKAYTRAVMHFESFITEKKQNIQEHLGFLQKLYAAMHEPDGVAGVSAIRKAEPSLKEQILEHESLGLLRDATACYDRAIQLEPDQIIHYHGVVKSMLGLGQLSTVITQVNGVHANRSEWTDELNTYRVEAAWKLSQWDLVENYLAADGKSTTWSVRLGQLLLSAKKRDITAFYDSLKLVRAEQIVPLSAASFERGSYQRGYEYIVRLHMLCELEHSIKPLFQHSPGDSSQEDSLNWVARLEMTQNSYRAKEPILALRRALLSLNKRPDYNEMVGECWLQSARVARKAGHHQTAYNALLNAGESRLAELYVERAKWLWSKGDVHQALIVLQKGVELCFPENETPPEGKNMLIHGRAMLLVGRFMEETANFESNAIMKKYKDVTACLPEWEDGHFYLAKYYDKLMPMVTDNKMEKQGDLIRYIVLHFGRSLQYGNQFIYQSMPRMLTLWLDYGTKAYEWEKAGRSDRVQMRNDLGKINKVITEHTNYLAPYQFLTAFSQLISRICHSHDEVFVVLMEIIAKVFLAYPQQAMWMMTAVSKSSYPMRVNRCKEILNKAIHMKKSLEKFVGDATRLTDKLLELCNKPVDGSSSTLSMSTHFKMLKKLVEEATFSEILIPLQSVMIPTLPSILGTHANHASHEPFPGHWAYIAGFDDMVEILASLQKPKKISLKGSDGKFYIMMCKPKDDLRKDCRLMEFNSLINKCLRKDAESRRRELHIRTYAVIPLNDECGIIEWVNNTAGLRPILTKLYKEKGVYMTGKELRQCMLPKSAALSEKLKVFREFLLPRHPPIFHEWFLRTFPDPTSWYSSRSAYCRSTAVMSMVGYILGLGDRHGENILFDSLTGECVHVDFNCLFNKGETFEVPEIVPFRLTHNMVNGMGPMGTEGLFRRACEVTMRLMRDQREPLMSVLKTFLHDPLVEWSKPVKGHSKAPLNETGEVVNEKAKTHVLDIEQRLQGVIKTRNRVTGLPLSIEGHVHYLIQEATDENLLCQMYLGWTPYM
# Sequence of ATR (Q8WXE1 whole entry partner): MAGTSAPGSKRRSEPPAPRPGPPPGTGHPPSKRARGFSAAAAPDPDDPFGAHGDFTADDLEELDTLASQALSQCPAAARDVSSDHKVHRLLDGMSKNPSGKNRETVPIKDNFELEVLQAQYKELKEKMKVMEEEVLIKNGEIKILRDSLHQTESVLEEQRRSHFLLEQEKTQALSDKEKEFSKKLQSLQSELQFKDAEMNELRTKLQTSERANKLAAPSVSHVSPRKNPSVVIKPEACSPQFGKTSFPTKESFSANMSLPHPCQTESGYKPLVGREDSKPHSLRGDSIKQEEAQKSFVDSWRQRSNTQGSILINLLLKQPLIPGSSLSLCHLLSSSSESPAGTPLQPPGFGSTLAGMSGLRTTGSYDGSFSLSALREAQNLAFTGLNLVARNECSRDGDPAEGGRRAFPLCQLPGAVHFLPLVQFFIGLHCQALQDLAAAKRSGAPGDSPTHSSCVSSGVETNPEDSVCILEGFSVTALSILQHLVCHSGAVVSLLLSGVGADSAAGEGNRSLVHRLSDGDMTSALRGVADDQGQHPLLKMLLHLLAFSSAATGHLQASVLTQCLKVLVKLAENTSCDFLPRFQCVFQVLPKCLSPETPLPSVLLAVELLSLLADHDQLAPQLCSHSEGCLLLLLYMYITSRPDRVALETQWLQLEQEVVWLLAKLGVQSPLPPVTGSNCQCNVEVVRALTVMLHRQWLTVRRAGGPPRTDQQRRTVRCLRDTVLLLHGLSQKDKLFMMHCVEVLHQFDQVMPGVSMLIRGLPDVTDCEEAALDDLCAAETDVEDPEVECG
# [9] = PK/PD/tolerability relationship (time above hyperglycemia threshold versus body weight loss); type: in vivo, nude mice and rats; conditions: mice and rats, threshold 20 μmol/L mice
# From the text: From this relationship, it is understood that the compound exposure levels should be sustained for no more than 35% of the dosing interval above the hyperglycemia cut-off to maintain body weight loss below 5% in mice and rats.
# [10] = Pharmacokinetics after oral administration, nude mice; type: in vivo; conditions: nude mice, 12.5, 25 and 50 mg/kg qd
# Description: as §2
# as §3, with “hold.” for “hold. The column was prepared for the next sample by re-equilibrating over 0.25 minutes to the starting conditions.”
# [11] = Modulation of glucose and insulin levels, nude rats; type: in vivo; conditions: versus plasma drug concentration
# [12] = Plasma protein binding; type: in vitro ADME; conditions: mouse, read-out: plasma protein binding (PPB) (converted)
# [13] = target: Vps34 (Homo sapiens, UniProt Q8NEB9); conditions: cited from earlier work
# Sequence of Vps34 (Q8NEB9 whole entry, species assumed): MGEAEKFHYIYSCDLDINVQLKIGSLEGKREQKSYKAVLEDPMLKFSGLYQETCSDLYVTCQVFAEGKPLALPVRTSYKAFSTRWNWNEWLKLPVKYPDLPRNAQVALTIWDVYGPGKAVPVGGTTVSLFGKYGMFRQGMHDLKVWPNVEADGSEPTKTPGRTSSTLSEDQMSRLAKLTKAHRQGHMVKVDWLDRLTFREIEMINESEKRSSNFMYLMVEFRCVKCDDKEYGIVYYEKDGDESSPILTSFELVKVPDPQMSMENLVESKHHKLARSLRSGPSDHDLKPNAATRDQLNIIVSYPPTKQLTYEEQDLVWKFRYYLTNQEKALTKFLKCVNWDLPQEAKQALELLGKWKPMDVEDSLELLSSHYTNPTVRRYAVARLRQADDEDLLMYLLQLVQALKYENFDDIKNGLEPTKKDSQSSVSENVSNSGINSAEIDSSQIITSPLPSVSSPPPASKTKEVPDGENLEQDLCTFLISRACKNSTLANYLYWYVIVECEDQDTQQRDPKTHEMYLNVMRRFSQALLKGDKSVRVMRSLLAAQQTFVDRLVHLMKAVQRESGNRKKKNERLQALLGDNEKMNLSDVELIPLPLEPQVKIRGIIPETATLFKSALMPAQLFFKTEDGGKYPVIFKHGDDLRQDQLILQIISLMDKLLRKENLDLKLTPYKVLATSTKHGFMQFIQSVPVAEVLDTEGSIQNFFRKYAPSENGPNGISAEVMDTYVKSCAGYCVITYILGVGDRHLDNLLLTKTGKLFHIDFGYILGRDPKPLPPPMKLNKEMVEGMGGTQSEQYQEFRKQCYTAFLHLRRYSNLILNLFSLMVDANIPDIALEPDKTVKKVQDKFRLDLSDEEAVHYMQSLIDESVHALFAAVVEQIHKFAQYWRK
# [14] = once or twice per day continuous daily schedule, oral; cited from earlier work
# [15] = tested on: Rat1-myr-p110α tumor; experiment: Antitumor activity in the Rat1-myr-p110α tumor model, nude rats; type: in vivo; conditions: nude rat, oral
# Description: as §4, §5, §1, §6, §7
# [16] = tested on: S473P-Akt; experiment: In vitro cellular S473P-Akt inhibition; type: cell-based
# [17] = target: DNA-PK (Homo sapiens, UniProt P78527); conditions: cited from earlier work
# [18] = Pharmacokinetics after oral administration, nude rats; type: in vivo; conditions: nude rats, 12.5, 25, 40 and 80 mg/kg qd
# Description: as §2
# as §3, with “hold.” for “hold. The column was prepared for the next sample by re-equilibrating over 0.25 minutes to the starting conditions.”
structure (smiles),measurement,setting,value
"Cc1nc(NC(=O)N2CCC[C@H]2C(N)=O)sc1-c1ccnc(C(C)(C)C(F)(F)F)c1 [Compound A, (S)-Pyrrolidine-1,2-dicarboxylic acid 2-amide 1-({4-methyl-5-[2-(2,2,2-trifluoro-1,1-dimethyl-ethyl)-pyridin-4-yl]-thiazol-2-yl}-amide)]",IC50,"[1]; Mus musculus, read-out: in vivo IC50, tumor concentration giving 50% S473P-Akt inhibition",600 nM
same,IC80,"[1]; Mus musculus, read-out: in vivo IC80 corrected for plasma protein binding",352 nM
same,IC80,"[1]; Mus musculus, tumor concentration, versus controls, Rat1-myr-p110α tumors, read-out: in vivo IC80, tumor concentration giving 80% S473P-Akt inhibition",4000 nM
same,IC50,"[1]; corrected for mouse PPB, read-out: in vivo IC50 corrected for plasma protein binding",53 nM
same,insulin plasma levels,[2],increased proportionally
same,Efficacy T/C (observed),[3]; 6.25 mg 2qd,0.02
same,Efficacy T/C (observed),[3]; 6.25 mg qd,0.19
same,Efficacy Regression (observed),[3]; 12.5 mg 2qd,−0.55
same,Efficacy T/C (observed),[3]; 12.5 mg qd,0.09
same,Efficacy Regression (observed),[3]; 20 mg 2qd,−0.80
same,Efficacy Regression (observed),[3]; 25 mg qd,−0.53
same,Efficacy Regression (observed),[3]; 40 mg 2qd,−0.86
same,Efficacy Regression (observed),[3]; 50 mg qd,−0.65
same,inhibitory activity against mTOR,[4],lacks inhibitory activity
same,clinical response,[5],confirmed partial responses
same,fraction of the dosing interval with 80% inhibition of Akt phosphorylation required to induce tumor stasis,[6],at least 25 % of the dosing interval
same,AUC,[7],35000 ng·h/mL and 80 µM·h
same,Cmax,[7],3500 ng/mL and 8 µM
same,inhibitory activity against ATR,[8],lacks inhibitory activity
same,fraction of the dosing interval above the hyperglycemia cut-off that maintains body weight loss below 5%,[9],no more than 35 % of the dosing interval
same,dose linearity of pharmacokinetics,[10],linear
same,insulin plasma levels,[11],increased proportionally
same,fraction unbound,[12],0.088
same,inhibitory activity against Vps34,[13],lacks inhibitory activity
same,decreased appetite,[14],34 % of patients
same,diarrhea,[14],35 % of patients
same,hyperglycemia,[14],49 % of patients
same,nausea,[14],43 % of patients
same,rash and hypersensitivity,[14],34 % of patients
same,Efficacy T/C (observed),[15]; 6.25 mg qd,0.22
same,Efficacy T/C (observed),[15]; 12.5 mg qd,0.05
same,Efficacy Regression (observed),[15]; 25 mg qd,−0.65
same,Efficacy Regression (observed),[15]; 50 mg qd,−0.80
same,IC50,[16],74 nM
same,IC80,[16],301 nM
same,inhibitory activity against DNA-PK,[17],lacks inhibitory activity
same,dose linearity of pharmacokinetics,[18],linear
